Experimental data reported in patent EP1862459A1, “Novel heterocyclic compounds” (GLAXO GROUP LIMITED, priority 2006, dated 2007).
Values after ≈ are worked out from the molar mass of the structure shown.

Test: physchem
Format: physicochemical
Details: fassif, pH 6.8, Solubility in FaSSIF µg/ml
Procedure: Compound solubility determination
An amount of 3 mg solid compound with LC-MS purity ≥ 95% was required. This amount was split between 3 different glass vials (1.8 ml volume each), placing 1 mg compound into each one.
Organic solvents of HPLC grade were used. Ultra pure water (Milli-Q grade) was used. Buffers were prepared with ultra pure water and filtered using 0.45 […] cameo filters. The compositions of each solvent employed in this assay are described below (part III).
For each of the three vial samples prepared as described above, in which the amount of compound was totally dissolved, the following procedure was subsequently carried out: • a) A small amount (approx. 0.1mg) of additional solid compound was added to the vial to maintain an excess of the compound in the mixture in the form of undissolved solid. • b) The samples were magnetically stirred for 24 hr. If required, additional solid compound (0.1mg) was added to maintain excess of it and then the samples were stirred again. • c) Then the samples were filtered (Millipore Milex filters nylon 0.2 um) and three aliquots were taken (one from each of the three vials) and analysed by LC-MS. • d) The pH of the final solution in each sample was measured with a pH-meter (WTW pH330i and a pH-electrode Sentix 41).
All filtered aliquots were analysed by LC-MS. […]

solubility	Structure (SMILES)
1 to 5 µg/mL (≈ 2.34 to 11.7 µM)	CC1=C(Cl)C(=O)C(CO)(c2ccc(Oc3ccc(OC(F)(F)F)cc3)cc2)CN1 (centres unmarked) [Example 1, 3-Chloro-5-(hydroxymethyl)-2-methyl-5-[4-({4-[(trifluoromethyl)oxy]phenyl}oxy)phenyl]-4(1H)-pyridinone]
5 to 10 µg/mL (≈ 11.4 to 22.8 µM)	Cc1[nH]c(C=NO)c(-c2ccc(Oc3ccc(OC(F)(F)F)cc3)cc2)c(=O)c1Cl [Example 5, 5-Chloro-6-methyl-4-oxo-3-[4-({4-[(trifluoromethyl)oxy]phenyl}oxy)phenyl]-1,4-dihydro-2-pyridinecarbaldehyde oxime]
